In ChEMBL document CHEMBL4184100, “Discovery of 2-arylquinazoline derivatives as a new class of ASK1 inhibitors” (Bioorg Med Chem Lett, 2018):
Converted amounts (≈) assume the structure as drawn. The source made the active and inactive calls. The rule behind the calls is not given here.

Tests used:
[1] = target: T1, Mitogen-activated protein kinase kinase kinase 5 (Homo sapiens, UniProt Q99683); test: Inhibition of stress-activated full length recombinant human N-terminal GST-tagged ASK1 expressed in baculovirus expression system using MKK6 as substrate pretreated for 10 mins followed by substrate addition by Alphascreen assay
T1 sequence (Q99683 whole entry): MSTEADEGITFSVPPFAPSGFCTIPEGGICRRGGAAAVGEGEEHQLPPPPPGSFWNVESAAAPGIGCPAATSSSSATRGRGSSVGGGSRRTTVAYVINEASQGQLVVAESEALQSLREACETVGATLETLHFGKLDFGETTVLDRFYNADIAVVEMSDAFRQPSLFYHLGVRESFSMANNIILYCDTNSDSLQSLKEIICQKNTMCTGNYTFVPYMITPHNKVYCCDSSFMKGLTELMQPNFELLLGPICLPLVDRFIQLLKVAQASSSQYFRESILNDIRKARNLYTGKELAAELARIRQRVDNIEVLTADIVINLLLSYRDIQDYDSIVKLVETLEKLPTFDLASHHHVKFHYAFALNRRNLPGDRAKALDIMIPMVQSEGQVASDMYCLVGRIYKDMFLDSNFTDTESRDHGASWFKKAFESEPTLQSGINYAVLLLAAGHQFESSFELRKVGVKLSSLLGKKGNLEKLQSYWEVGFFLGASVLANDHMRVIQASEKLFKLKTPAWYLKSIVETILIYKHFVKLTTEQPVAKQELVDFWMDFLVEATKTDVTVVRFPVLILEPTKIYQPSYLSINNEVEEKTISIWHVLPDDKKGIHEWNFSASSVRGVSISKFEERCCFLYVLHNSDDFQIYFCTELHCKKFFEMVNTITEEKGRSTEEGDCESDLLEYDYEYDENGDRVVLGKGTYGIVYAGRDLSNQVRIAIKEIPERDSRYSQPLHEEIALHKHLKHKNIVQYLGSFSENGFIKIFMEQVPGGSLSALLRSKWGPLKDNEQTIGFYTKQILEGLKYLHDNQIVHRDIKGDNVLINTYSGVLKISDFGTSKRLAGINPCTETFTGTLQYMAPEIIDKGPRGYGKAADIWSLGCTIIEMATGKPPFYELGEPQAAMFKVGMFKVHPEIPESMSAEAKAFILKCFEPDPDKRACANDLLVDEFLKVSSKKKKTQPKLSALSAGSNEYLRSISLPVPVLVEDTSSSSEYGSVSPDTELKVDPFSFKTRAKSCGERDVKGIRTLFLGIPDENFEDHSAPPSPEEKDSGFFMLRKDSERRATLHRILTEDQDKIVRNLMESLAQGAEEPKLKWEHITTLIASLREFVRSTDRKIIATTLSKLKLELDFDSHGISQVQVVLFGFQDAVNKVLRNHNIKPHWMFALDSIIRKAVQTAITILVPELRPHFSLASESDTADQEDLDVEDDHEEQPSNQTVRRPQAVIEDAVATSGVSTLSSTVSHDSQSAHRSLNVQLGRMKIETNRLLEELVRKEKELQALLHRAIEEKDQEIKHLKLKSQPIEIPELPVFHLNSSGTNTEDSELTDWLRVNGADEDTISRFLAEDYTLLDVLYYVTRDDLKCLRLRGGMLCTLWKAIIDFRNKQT

[2] = target: T2, Mitogen-activated protein kinase kinase kinase 5 (Rattus norvegicus) (UniProt D3ZZH6); test: Inhibition of […] in rat INS-1E cells assessed as reduction in TNFalpha-induced […] phosphorylation at ser207 residues up to 10 uM by immunoblot analysis; format: cell-based
T2 sequence (whole entry): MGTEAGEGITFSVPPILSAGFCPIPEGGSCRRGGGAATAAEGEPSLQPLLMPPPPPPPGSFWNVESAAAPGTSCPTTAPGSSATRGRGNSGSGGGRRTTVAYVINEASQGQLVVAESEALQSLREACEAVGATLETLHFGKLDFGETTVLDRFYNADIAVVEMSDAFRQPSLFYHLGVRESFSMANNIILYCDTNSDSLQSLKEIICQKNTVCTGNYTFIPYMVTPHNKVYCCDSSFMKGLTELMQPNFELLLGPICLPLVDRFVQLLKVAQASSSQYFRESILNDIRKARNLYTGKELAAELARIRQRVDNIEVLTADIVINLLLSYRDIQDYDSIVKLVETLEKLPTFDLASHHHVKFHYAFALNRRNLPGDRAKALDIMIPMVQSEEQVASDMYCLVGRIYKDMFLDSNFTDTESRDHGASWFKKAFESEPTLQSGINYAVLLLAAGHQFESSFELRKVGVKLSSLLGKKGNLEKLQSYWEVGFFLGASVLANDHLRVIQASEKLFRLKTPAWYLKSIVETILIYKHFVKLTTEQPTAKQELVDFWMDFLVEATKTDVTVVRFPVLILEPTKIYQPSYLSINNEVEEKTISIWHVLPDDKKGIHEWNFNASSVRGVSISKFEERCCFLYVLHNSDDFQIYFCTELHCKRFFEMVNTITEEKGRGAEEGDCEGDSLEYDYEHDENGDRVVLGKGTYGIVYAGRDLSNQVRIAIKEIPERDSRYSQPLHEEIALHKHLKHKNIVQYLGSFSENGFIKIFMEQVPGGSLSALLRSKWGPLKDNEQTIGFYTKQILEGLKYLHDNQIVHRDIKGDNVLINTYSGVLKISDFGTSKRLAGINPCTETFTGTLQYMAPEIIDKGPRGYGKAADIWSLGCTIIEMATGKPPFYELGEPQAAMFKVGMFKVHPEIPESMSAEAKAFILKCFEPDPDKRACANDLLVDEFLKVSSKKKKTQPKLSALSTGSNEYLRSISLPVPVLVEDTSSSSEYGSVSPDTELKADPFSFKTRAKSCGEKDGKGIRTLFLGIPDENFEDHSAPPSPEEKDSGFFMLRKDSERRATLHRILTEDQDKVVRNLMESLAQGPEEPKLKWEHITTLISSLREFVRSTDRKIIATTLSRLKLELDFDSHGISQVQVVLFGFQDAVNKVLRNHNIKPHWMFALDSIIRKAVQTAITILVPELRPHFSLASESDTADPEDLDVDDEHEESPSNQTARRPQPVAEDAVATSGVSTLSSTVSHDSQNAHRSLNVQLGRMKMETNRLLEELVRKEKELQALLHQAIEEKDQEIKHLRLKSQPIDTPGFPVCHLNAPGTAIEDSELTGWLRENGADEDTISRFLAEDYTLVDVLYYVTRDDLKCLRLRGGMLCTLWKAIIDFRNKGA

[3] = Solubility of the compound in phosphate buffered saline at pH 7.4; format: physicochemical; conditions: buffer
[4] = Stability in human liver microsomes; format: ADME, microsome; conditions: read-out: Stability
[5] = Stability in mouse liver microsomes; format: ADME, microsome; conditions: read-out: Stability
[6] = Stability in rat liver microsomes; format: ADME, microsome; conditions: read-out: Stability
CYP1A2 = target: T3, CYP1A2 (Homo sapiens, UniProt P05177); test: Inhibition of CYP1A2 (unknown origin) at 10 uM relative to control; format: ADME
T3 sequence (P05177 whole entry): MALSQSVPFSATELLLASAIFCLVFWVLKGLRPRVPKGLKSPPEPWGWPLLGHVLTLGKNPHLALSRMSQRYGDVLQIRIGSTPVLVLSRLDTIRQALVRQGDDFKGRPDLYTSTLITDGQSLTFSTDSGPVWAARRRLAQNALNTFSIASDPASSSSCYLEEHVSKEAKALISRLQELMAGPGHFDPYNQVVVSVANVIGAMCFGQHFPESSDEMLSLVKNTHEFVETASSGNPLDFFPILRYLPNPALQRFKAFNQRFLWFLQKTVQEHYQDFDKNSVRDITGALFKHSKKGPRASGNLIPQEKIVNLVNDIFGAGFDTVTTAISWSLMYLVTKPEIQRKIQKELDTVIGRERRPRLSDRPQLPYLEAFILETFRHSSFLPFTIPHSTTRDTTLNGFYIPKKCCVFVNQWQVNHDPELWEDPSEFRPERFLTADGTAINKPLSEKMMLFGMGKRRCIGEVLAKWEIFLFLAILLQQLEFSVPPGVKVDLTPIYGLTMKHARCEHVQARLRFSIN

CYP2C9 = CYP2C9 (Homo sapiens, UniProt P11712); test: Inhibition of CYP2C9 (unknown origin) at 10 uM relative to control; format: ADME
CYP2D6 = CYP2D6 (Homo sapiens, UniProt P10635); test: Inhibition of CYP2D6 (unknown origin) at 10 uM relative to control; format: ADME
CYP3A4 = CYP3A4 (Homo sapiens, UniProt P08684); test: Inhibition of CYP3A4 (unknown origin) at 10 uM relative to control; format: ADME
Sequence of CYP3A4 (P08684 whole entry): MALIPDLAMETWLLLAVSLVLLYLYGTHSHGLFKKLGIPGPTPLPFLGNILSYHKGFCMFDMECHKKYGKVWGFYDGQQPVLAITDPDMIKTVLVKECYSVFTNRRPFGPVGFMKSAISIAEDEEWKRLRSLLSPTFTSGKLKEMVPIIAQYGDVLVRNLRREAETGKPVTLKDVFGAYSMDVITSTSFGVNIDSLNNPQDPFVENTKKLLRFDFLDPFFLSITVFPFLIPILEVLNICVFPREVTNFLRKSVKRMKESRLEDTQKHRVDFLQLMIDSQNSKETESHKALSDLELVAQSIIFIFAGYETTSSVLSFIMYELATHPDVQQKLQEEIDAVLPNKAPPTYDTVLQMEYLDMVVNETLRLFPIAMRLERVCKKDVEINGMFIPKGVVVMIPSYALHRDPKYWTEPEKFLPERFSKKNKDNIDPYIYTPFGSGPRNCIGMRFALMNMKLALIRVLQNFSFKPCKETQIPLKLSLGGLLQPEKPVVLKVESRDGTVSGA

Sequence of CYP2D6 (P10635 whole entry): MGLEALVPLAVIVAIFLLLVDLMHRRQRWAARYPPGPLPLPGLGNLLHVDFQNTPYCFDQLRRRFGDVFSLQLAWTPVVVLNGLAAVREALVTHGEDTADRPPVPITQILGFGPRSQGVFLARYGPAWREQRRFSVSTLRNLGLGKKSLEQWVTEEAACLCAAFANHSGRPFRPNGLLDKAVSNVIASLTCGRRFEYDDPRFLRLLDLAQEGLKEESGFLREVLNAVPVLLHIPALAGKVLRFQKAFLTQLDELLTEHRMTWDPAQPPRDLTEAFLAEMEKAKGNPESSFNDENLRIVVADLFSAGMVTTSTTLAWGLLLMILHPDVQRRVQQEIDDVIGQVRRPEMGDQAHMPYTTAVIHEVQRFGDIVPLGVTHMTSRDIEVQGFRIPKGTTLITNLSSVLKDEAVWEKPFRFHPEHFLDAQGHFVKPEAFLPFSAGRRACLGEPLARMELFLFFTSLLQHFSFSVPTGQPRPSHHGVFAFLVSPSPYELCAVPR
Sequence of CYP2C9 (P11712 whole entry): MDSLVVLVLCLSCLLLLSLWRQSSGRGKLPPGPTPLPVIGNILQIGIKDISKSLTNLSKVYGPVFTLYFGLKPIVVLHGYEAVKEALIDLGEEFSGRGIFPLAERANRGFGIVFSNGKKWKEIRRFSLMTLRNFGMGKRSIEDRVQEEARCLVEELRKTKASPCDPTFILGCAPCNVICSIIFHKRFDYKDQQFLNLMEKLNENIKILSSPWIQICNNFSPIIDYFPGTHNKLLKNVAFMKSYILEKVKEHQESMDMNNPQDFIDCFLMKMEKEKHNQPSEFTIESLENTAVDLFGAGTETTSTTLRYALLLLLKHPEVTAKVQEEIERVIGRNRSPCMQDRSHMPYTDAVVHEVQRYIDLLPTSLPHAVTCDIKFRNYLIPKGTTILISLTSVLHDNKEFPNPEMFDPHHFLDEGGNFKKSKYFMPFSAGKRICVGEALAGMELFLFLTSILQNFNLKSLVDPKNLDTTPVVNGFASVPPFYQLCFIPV

IC50 [1]: 900 nM
inhibition [2]: Active
solubility [3]: 100 µM (≈ 27.8 µg/mL)
half-life [4]: 6 min
half-life [5]: 2 min
half-life [6]: 4 min
inhibition at 10 µM (CYP1A2): 94%
inhibition at 10 µM (CYP2C9): 20%
inhibition at 10 µM (CYP2D6): 13%
inhibition at 10 µM (CYP3A4): -13%
Structure (SMILES): CC(=O)Nc1cccc(Nc2ncc3ccccc3n2)c1
